Test results from US20240398773A1, “COMPOSITIONS COMPRISING OTESECONAZOLE” (Mycovia Pharmaceuticals, Inc., priority 2021, published 2024).
Read-outs that look alike come from different tables or passages of the source. Marks after values point to notes of the source that are not given here.

Experiments:
acute VVC episodes = experiment: Study CL-017 efficacy versus fluconazole, acute VVC episodes; assay type: in vivo, human
[1] = Study CL-001 single-dose escalation in healthy subjects, plasma PK; assay type: in vivo, human; conditions: for Tmax / Vd/F / half-life / Cmax / AUC(0-inf): both sexes, human, plasma
Experimental: Study Oteseconazole CL-001 (hereafter referenced as “CL-001”) was a single-center, Phase 1, double-blind, randomized, placebo-controlled, dose-escalating study in healthy adult subjects.
Sixty-four subjects (43 males and 21 females) between 18 and 55 years of age were enrolled in 8 dose groups. Within each dose group, 6 subjects received oteseconazole and 2 subjects received placebo. In the first 7 cohorts, escalating single oral doses (5, 10, 20, 40, 80, 160, or 320 mg) were administered in the fasted state using 2.5, 20, or 60 mg capsules of oteseconazole or matching placebo. An eighth cohort received a single 320 mg oral dose of oteseconazole or matching placebo after ingesting a high-fat breakfast. Subjects in Cohorts 1 through 6 were followed for 14 days for safety and PK assessments. Visits on Days 28 and 42 were added for Cohorts 7 and 8. Dose escalation proceeded only after safety and PK of the previous dose were determined.
The PK analysis was based on concentration-time data from 36 subjects who received active oteseconazole at doses between 20 mg and 320 mg. The majority of the oteseconazole plasma concentrations in Cohort 1 (5 mg) and Cohort 2 (10 mg) were below the limit of quantification (<20 ng/mL); therefore, no PK analysis could be conducted on these subjects.

[2] = Phase 2b study and three Phase 3 studies, plasma concentration at end of dosing; assay type: in vivo; conditions: human, oral, loading dose Days 1 and 2, then 150 mg weekly, read-out: mean plasma concentrations at the end of the dosing period (Week 14)
Experimental: Oteseconazole dosing regimens will also incorporate a 150 mg once weekly maintenance dose phase for 11 weeks. The initial loading dose given on Days 1 and 2 combined with maintenance dosing of 150 mg oteseconazole weekly for a total treatment duration of 12 weeks was efficacious in preventing recurrence of acute VVC episodes for the duration of the study (48-50 weeks). Based on the PK results from a Phase 2b study and three Phase 3 studies, mean plasma concentrations of approximately 2.5 to 3.5 μg/mL are observed at the end of the dosing period (Week 14).

Candida species = experiment: Phase 2a dose-ranging study in moderate-to-severe acute VVC, effective therapeutic cure; assay type: in vivo, human; conditions: Per Protocol population
Experimental: Oteseconazole has previously been evaluated in a Phase 2a multi-center, randomized, double-blind, active-controlled, parallel-group, dose-ranging study in patients with moderate-to-severe acute VVC. A total of 55 subjects with moderate-to-severe acute VVC (severity score ≥6 and a positive fungal KOH test) participated in the study across 4 dose groups: 1) oteseconazole 300 mg qd for 3 days: 2) 600 mg qd for 3 days: 3) 600 mg bid for 3 days; or 4) a single dose of fluconazole 150 mg followed by matching placebo. […] No safety signals of clinical concern were observed from the safety assessments.
The efficacy of oteseconazole in the treatment of moderate-to-severe acute VVC was evaluated at the TOC visit in the Per Protocol population at the Day 28 test of cure (TOC) visit was, 87%, 86%, 86%, and 75% of subjects receiving the low, mid-, or high-dose oteseconazole or comparator arm of fluconazole, respectively, achieved an effective therapeutic cure (defined as having a total clinical signs and symptoms severity score of ≤1 and a negative culture for Candida species) in the Per Protocol population

[3] = Study CL-012 plasma concentrations; assay type: in vivo; conditions: human
Experimental: Oteseconazole mean (SD) plasma concentration increased with dosing for 12 weeks, reaching a maximum concentration of 3605.8 (1518.08) μg/L at Week 12. At the end of dosing, there was a slow decrease in oteseconazole plasma concentration, reaching 1122.0 (656.14) μg/L by Week 48 (FIG. 5). Following the loading dose regimen of 150 mg oteseconazole QD for 7 days, the mean (SD) oteseconazole plasma concentration at Day 14 was 1785.5 (747.75) μg/L.

[4] = Physicochemical and biological properties of drug substance
Text: As a BCS Class IIc drug, it may be anticipated that dissolution may be dependent upon the drug substance particle size. (Tsume et al., 2014). Micronization of the drug substance provided a means to deliver drug substance with a small and consistent particle size. A discriminatory dissolution method was developed to show the effect of drug substance particle size on dissolution to help ensure product quality. […] A high shear wet granulation process was developed to densify the product, and improve its flow to enable manufacturing, while maintaining good dissolution from the formulation.

[5] = Cohort 4, single oral 40 mg, fasted, mean
[6] = Cohort 5, single oral 80 mg, fasted, mean
[7] = Cohort 6, single oral 160 mg, fasted, mean
[8] = Cohort 7, single oral 320 mg, Fasted, mean
[9] = Cohort 8, single oral 320 mg, Fed (high-fat breakfast), mean
[10] = po, 40 mg, Cohort 4, single oral 40 mg, fasted, mean
[11] = po, 80 mg, Cohort 5, single oral 80 mg, fasted, mean
[12] = po, 160 mg, Cohort 6, single oral 160 mg, fasted, mean
[13] = po, 320 mg, Cohort 7, single oral 320 mg, Fasted, mean
[14] = po, 320 mg, Cohort 8, single oral 320 mg, Fed (high-fat breakfast), mean

With `O[C@@](Cn1cnnn1)(c1ccc(F)cc1F)C(F)(F)c1ccc(-c2ccc(OCC(F)(F)F)cc2)cn1` [Oteseconazole, oteseconazole] the “efficacy of enhanced loading dose compared with fluconazole” value (acute VVC episodes; 600 mg Day 1 and 450 mg Day 2 versus fluconazole three 150 mg doses 72 hours apart) was “noninferior to fluconazole”, the “average percentage of subjects with 1 or more culture-verified acute VVC episodes” value (acute VVC episodes; including subjects who had a recurrence during the Induction Phase) was 5.1% and the “plasma concentrations with standard high-fat meal versus fasted state” value ([1]; 320 mg, Cohort 8 versus Cohort 7) was “higher plasma concentrations”. The “plasma concentrations (majority below the limit of quantification)” value ([1]; Cohort 1 (5 mg) and Cohort 2 (10 mg)) was under 20 ng/mL, the Tlag ([1]; Cohort 3, single oral 20 mg, fasted, mean) was 1.84 h and the CL/F ([1]; Cohort 3, single oral 20 mg, fasted, mean, N = 5) was 1.39 ^a L/h. The CL/F [1, 5] was 1.30 L/h, the Tlag [1, 5] was 1.58 h and the CL/F [1, 6] was 1.08 L/h. The Tlag [1, 6] was 1.17 h, the CL/F [1, 7] was 1.67 L/h and the Tlag [1, 7] was 0.75 h. For the same compound, the CL/F [1, 8] was 1.35 L/h, the Tlag [1, 8] was 0.67 h and the CL/F [1, 9] was 0.406 L/h. It also gave a Tlag [1, 9] of 1.25 h, a Tmax ([1]; oral, 4 hours at 80 mg to 10 hours at 40 mg, read-out: Median Tmax, range over doses) of 4 to 10 h and a Vd/F ([1]; oral, all cohorts, read-out: Vz/F, range of cohort averages) of 696 to 1650 L. For the same compound, the half-life ([1]; po, 20 mg, Cohort 3, single oral 20 mg, fasted, N = 5) was 393 h, the Cmax ([1]; po, 20 mg, Cohort 3, single oral 20 mg, fasted, mean) was 44.7 ng/mL and the AUC(0-inf) ([1]; po, 20 mg, Cohort 3, single oral 20 mg, fasted, mean, N = 5) was 16100 ng·h/mL. For the same compound, the Vd/F ([1]; po, 20 mg, Cohort 3, single oral 20 mg, fasted, mean, N = 5, read-out: Vz/F) was 696 L, the Tmax ([1]; po, 20 mg, Cohort 3, single oral 20 mg, fasted, median, read-out: Tmax) was 5.03 h and the half-life ([1]; po, 40 mg, Cohort 4, single oral 40 mg, fasted) was 548 h. For the same compound, the AUC(0-inf) [1, 10] was 35000 ng·h/mL, the Cmax [1, 10] was 79.7 ng/mL and the Vd/F ([1]; po, 40 mg, Cohort 4, single oral 40 mg, fasted, mean, read-out: Vz/F) was 939 L. The Tmax ([1]; po, 40 mg, Cohort 4, single oral 40 mg, fasted, median, read-out: Tmax) was 10 h, the half-life ([1]; po, 80 mg, Cohort 5, single oral 80 mg, fasted) was 536 h and the AUC(0-inf) [1, 11] was 84600 ng·h/mL. The Cmax [1, 11] was 165 ng/mL, the Vd/F ([1]; po, 80 mg, Cohort 5, single oral 80 mg, fasted, mean, read-out: Vz/F) was 761 L and the Tmax ([1]; po, 80 mg, Cohort 5, single oral 80 mg, fasted, median, read-out: Tmax) was 4.01 h. For the same compound, the half-life ([1]; po, 160 mg, Cohort 6, single oral 160 mg, fasted) was 618 h, the AUC(0-inf) [1, 12] was 109000 ng·h/mL and the Cmax [1, 12] was 180 ng/mL. It also gave a Vd/F ([1]; po, 160 mg, Cohort 6, single oral 160 mg, fasted, mean, read-out: Vz/F) of 1400 L, a Tmax ([1]; po, 160 mg, Cohort 6, single oral 160 mg, fasted, median, read-out: Tmax) of 6 h and a half-life ([1]; po, 320 mg, Cohort 7, single oral 320 mg, Fasted) of 873 h. For the same compound, the AUC(0-inf) [1, 13] was 242000 ng·h/mL, the Cmax [1, 13] was 338 ng/mL and the Vd/F ([1]; po, 320 mg, Cohort 7, single oral 320 mg, Fasted, mean, read-out: Vz/F) was 1650 L. For the same compound, the Tmax ([1]; po, 320 mg, Cohort 7, single oral 320 mg, Fasted, median, read-out: Tmax) was 5 h, the half-life ([1]; po, 320 mg, Cohort 8, single oral 320 mg, Fed (high-fat breakfast)) was 1470 h and the AUC(0-inf) [1, 14] was 953000 ng·h/mL. For the same compound, the Cmax [1, 14] was 988 ng/mL, the Vd/F ([1]; po, 320 mg, Cohort 8, single oral 320 mg, Fed (high-fat breakfast), mean, read-out: Vz/F) was 741 L and the Tmax ([1]; po, 320 mg, Cohort 8, single oral 320 mg, Fed (high-fat breakfast), median, read-out: Tmax) was 6 h. For the same compound, the concentration at 14 week [2] was 2500 to 3500 ng/mL, the “subjects achieving effective therapeutic cure at Day 28 TOC visit” value (Candida species; high dose, oteseconazole 600 mg bid for 3 days) was 86% and the “subjects achieving effective therapeutic cure at Day 28 TOC visit” value (Candida species; low dose, oteseconazole 300 mg qd for 3 days) was 87%. For the same compound, the “subjects achieving effective therapeutic cure at Day 28 TOC visit” value (Candida species; mid dose, oteseconazole 600 mg qd for 3 days) was 86%, the concentration at 12 week ([3]; 150 mg, Week 12, maximum concentration, read-out: mean (SD) plasma concentration) was 3610 ng/mL and the concentration at 48 week ([3]; 150 mg, Week 48, read-out: mean (SD) plasma concentration) was 1120 ng/mL. The concentration at 14 day ([3]; Day 14, after loading 150 mg QD for 7 days, read-out: mean (SD) plasma concentration) was 1790 ng/mL, the BCS class [4] was “BCS Class IIc” and the hygroscopicity [4] was “slightly hygroscopic”. The stability to light [4] was “stable in the presence of light”, the solubility ([4]; BCS classification) was “low solubility” and the chemical stability ([4]; alone and formulated into a drug product) was “excellent chemical stability”. For the same compound, the bulk density ([4]; micronized drug substance) was “approximately 0.2 g/mL” and the ionization ([4]; pH range of the gastrointestinal tract) was “unionized throughout the pH range of the gastrointestinal tract”.
